Reference: patent US20080070867A1, “2-Imidazolone and 2-Imidazolidinone Heterocyclic Inhibitors of Tyrosine Phosphatases” (Metabasis Therapeutics, Inc., priority 2005, published 2008)
pIC50: −log10 of the molar value.

What follows are molecules tested against T1, Human recombinant PTP-1B (Homo sapiens, UniProt P18031) (assay: Assay for PTP-1B Activity (pNPP substrate)). Conditions: human recombinant PTP-1B (1-321) GST fusion, 2 mM pNPP, pH 7.4, 30° C., 20 min; read-out: Activity Code (IC50 range).
T1 construct: Human recombinant PTP-1B, containing amino acids 1-321, fused to GST enzyme; GST (glutathione S-transferase)
T1 sequence (P18031 1-321): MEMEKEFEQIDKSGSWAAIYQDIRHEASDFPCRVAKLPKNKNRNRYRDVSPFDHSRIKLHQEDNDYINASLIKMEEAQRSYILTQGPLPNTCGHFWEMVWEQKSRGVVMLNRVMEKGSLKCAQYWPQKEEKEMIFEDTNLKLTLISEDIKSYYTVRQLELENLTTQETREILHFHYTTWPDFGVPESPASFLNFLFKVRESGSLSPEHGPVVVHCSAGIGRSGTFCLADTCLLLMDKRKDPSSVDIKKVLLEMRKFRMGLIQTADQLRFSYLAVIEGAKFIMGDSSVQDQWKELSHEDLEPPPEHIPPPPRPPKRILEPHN
Type: biochemical
From the text: The activity of the compounds as modulators of protein tyrosine phosphatase, including PTP-1B, may be measured in standard assays (see, e.g., Examples 41 and 42). Briefly, the assay described herein employs human recombinant PTP-1B and a pNPP substrate in a rescue assay.
Assay for PTP-1B Activity
Enzyme: Human recombinant PTP-1B, containing amino acids 1-321, fused to GST enzyme (glutathione S-transferase) purified by affinity chromatography (Huyer et al, 1997, J. Biol. Chem., 272, 843-852).
pNPP: p-Nitrophenyl Phosphate (Calbiochem)
Assay Buffer: 50 mM HEPES (pH 7.4), 100 mM NaCl, 2 mM EDTA, 3 mM DTT
(5×) pNPP substrate: 10 mM pNPP in assay buffer
Enzyme: 1 mg/ml PTP1B (1-321), dilute 1:200 in assay buffer
Assay buffer: 50 mM HEPES (pH 7.4), 100 mM NaCl, 2 mM EDTA, 3 mM DTT
Enzyme dilution buffer: 50 mM HEPES (pH 7.4), 100 mM NaCl, 2 mM EDTA, 3 mM DTT
Substrate 198 mM p-Nitrophenyl Phosphate (pNPP) store at 4° C.
The assay was carried out at 30° C. in 96 well plates. The reaction mixture in 60 ul contained 50 mM HEPES (pH 7.4), 100 mM NaCl, 2 mM EDTA, 3 mM DTT, and 2 mM p-Nitrophenyl Phosphate (pNPP). 5 ul of the test compound (inhibitor) dissolved in DMSO or DMSO alone for control was added to each well and the plate was mixed for 2 min. The reaction was initiated by adding 20 ul of diluted PTP1B (5 ng/ul in 50 mM HEPES (pH 7.4), 100 mM NaCl, 2 mM EDTA, 3 mM DTT). After 20 min at 30° C., the enzyme reaction was terminated by adding 100 ul of 2 M K2CO3 to each well. The phosphatase activity was detected by using Victor II plate reader (Wallac) with absorbance detection at 405 nm. All the assays were done at least in duplicate. The initial rate of pNP is plotted against the concentration of inhibitor.
`CNC(=O)c1ccc(-c2cn(Cc3ccccc3)c(=O)n2Cc2ccc(C(F)(F)P(=O)(O)O)c(Br)c2)cc1` [Compound 28, ({4-[3-Benzyl-5-(4-methylcarbamoyl-phenyl)-2-oxo-2,3-dihydro-imidazol-1-ylmethyl]-2-bromo-phenyl}-difluoro-methyl)-phosphonic acid] was tested, and the pIC50 was 5.60 to 6.60.
With `O=c1n(Cc2ccccc2)cc(-c2ccccc2)n1Cc1ccc(C(F)(F)P(=O)(O)O)c(Br)c1` [Compound 29, {[4-(3-Benzyl-2-oxo-5-phenyl-2,3-dihydro-imidazol-1-ylmethyl)-2-bromo-phenyl]-difluoro-methyl}-phosphonic acid] the pIC50 was 5.60 to 6.60.
`O=c1n(Cc2ccccc2)cc(-c2ccc3c(c2)OCCO3)n1Cc1ccc(C(F)(F)P(=O)(O)O)c(Br)c1` [Compound 30, ({4-[3-Benzyl-5-(2,3-dihydro-benzo[1,4]dioxin-6-yl)-2-oxo-2,3-dihydro-imidazol-1-ylmethyl]-2-bromo-phenyl}-difluoro-methyl)-phosphonic acid] was tested, and the pIC50 was 5.60 to 6.60.
For `N#Cc1cccc(-c2cn(Cc3ccccc3)c(=O)n2Cc2ccc(C(F)(F)P(=O)(O)O)c(Br)c2)c1` [Compound 31, ({4-[3-Benzyl-5-(3-cyano-phenyl)-2-oxo-2,3-dihydro-imidazol-1-ylmethyl]-2-bromo-phenyl}-difluoro-methyl)-phosphonic acid], the pIC50 was 5.60 to 6.60.
Work on `CS(=O)(=O)c1ccc(-c2cn(Cc3cccc(N)c3)c(=O)n2Cc2ccc(C(F)(F)P(=O)(O)O)c(Br)c2)cc1` [Compound 32, ({4-[3-(3-Amino-benzyl)-5-(4-methanesulfonyl-phenyl)-2-oxo-2,3-dihydro-imidazol-1-ylmethyl]-2-bromo-phenyl}-difluoro-methyl)-phosphonic acid] yielded a pIC50 of over 7.00.
For `O=c1n(CC2CC2)cc(-c2ccccc2)n1Cc1ccc(C(F)(F)P(=O)(O)O)c(Br)c1` [Compound 33, {[2-Bromo-4-(3-cyclopropylmethyl-2-oxo-5-phenyl-2,3-dihydro-imidazol-1-ylmethyl)-phenyl]-difluoro-methyl}-phosphonic acid], the pIC50 was 5.60 to 6.60.
`COc1cc(Cn2cc(-c3ccc(C(=O)O)cc3)n(Cc3ccc(C(F)(F)P(=O)(O)O)c(Br)c3)c2=O)cc(OC)c1` [Compound 34, 4-[3-[3-Bromo-4-(difluoro-phosphono-methyl)-benzyl]-1-(3,5-dimethoxy-benzyl)-2-oxo-2,3-dihydro-1H-imidazol-4-yl]-benzoic acid] was tested, and the pIC50 was 5.60 to 6.60.
`O=C(O)c1ccc(-c2cn(C3CC3)c(=O)n2Cc2ccc(C(F)(F)P(=O)(O)O)c(Br)c2)cc1` [Compound 35, 4-{3-[3-Bromo-4-(difluoro-phosphono-methyl)-benzyl]-1-cyclopropyl-2-oxo-2,3-dihydro-1H-imidazol-4-yl}-benzoic acid] gave a pIC50 of 5.60 to 6.60.
In the case of `O=C(O)c1ccc(-c2cn(Cc3ccccn3)c(=O)n2Cc2ccc(C(F)(F)P(=O)(O)O)c(Br)c2)cc1` [Compound 36, 4-{3-[3-Bromo-4-(difluoro-phosphono-methyl)-benzyl]-2-oxo-1-pyridin-2-ylmethyl-2,3-dihydro-1H-imidazol-4-yl}-benzoic acid], the pIC50 was 5.60 to 6.60.
Work on `CCOC(=O)n1cc(-c2ccc(C(=O)OC)cc2)n(Cc2ccc(C(F)(F)P(=O)(O)O)c(Br)c2)c1=O` [Compound 37, 3-[3-Bromo-4-(difluoro-phosphono-methyl)-benzyl]-4-(4-methoxycarbonyl-phenyl)-2-oxo-2,3-dihydro-imidazole-1-carboxylic acid ethyl ester] yielded a pIC50 of 5.60 to 6.60.
For `COC(=O)c1ccc(-c2cn(C)c(=O)n2Cc2ccc(C(F)(F)P(=O)(O)O)c(Br)c2)cc1` [Compound 38, 4-{3-[3-Bromo-4-(difluoro-phosphono-methyl)-benzyl]-1-methyl-2-oxo-2,3-dihydro-1H-imidazol-4-yl}-benzoic acid methyl ester], the pIC50 was 5.60 to 6.60.
`O=c1n(Cc2ccccc2)cc(-c2ccsc2)n1Cc1ccc(C(F)(F)P(=O)(O)O)c(Br)c1` [Compound 39, {[4-(3-Benzyl-2-oxo-5-thiophen-3-yl-2,3-dihydro-imidazol-1-ylmethyl)-2-bromo-phenyl]-difluoro-methyl}-phosphonic acid] showed a pIC50 of 5.60 to 6.60.
With `CC(=O)Nc1cccc(Cn2cc(-c3ccc(S(C)(=O)=O)cc3)n(Cc3ccc(C(F)(F)P(=O)(O)O)c(Br)c3)c2=O)c1` [Compound 40, ({4-[3-(3-Acetylamino-benzyl)-5-(4-methanesulfonyl-phenyl)-2-oxo-2,3-dihydro-imidazol-1-ylmethyl]-2-bromo-phenyl}-difluoro-methyl)-phosphonic acid] the pIC50 was over 7.00.
`COC(=O)c1ccc(-c2c[nH]c(=O)n2Cc2ccc(C(F)(F)P(=O)(O)O)c(Br)c2)cc1` [Compound 41, 4-{3-[3-Bromo-4-(difluoro-phosphono-methyl)-benzyl]-2-oxo-2,3-dihydro-1H-imidazol-4-yl}-benzoic acid methyl ester] gave a pIC50 of 5.60 to 6.60.
In the case of `Cn1cc(-c2ccc(C(=O)O)cc2)n(Cc2ccc(C(F)(F)P(=O)(O)O)c(Br)c2)c1=O` [Compound 42, 4-{3-[3-Bromo-4-(difluoro-phosphono-methyl)-benzyl]-1-methyl-2-oxo-2,3-dihydro-1H-imidazol-4-yl}-benzoic acid], the pIC50 was 5.60 to 6.60.
`O=c1n(Cc2ccc(C(F)(F)P(=O)(O)O)c(Br)c2)ccn1-c1ccccc1` [Compound 43, {[2-Bromo-4-(2-oxo-3-phenyl-2,3-dihydro-imidazol-1-ylmethyl)-phenyl]-difluoro-methyl}-phosphonic acid] was tested, and the pIC50 was 4.60 to 5.60.
With `O=c1n(Cc2ccccc2)cc(-c2cccs2)n1Cc1ccc(C(F)(F)P(=O)(O)O)c(Br)c1` [Compound 44, {[4-(3-Benzyl-2-oxo-5-thiophen-2-yl-2,3-dihydro-imidazol-1-ylmethyl)-2-bromo-phenyl]-difluoro-methyl}-phosphonic acid] the pIC50 was 5.60 to 6.60.
With `COC(=O)/C=C/c1ccc(-c2cn(C3CC3)c(=O)n2Cc2ccc(C(F)(F)P(=O)(O)O)c(Br)c2)cc1` [Compound 45, 3-(4-{3-[3-Bromo-4-(difluoro-phosphono-methyl)-benzyl]-1-cyclopropyl-2-oxo-2,3-dihydro-1H-imidazol-4-yl}-phenyl)-acrylic acid methyl ester] the pIC50 was over 7.00.
Work on `O=C(O)/C=C/c1ccc(-c2cn(C3CC3)c(=O)n2Cc2ccc(C(F)(F)P(=O)(O)O)c(Br)c2)cc1` [Compound 46, 3-(4-{3-[3-Bromo-4-(difluoro-phosphono-methyl)-benzyl]-1-cyclopropyl-2-oxo-2,3-dihydro-1H-imidazol-4-yl}-phenyl)-acrylic acid] yielded a pIC50 of over 7.00.
Molecule `CCn1cc(-c2ccc(C(=O)OC)cc2)n(Cc2ccc(C(F)(F)P(=O)(O)O)c(Br)c2)c1=O` [Compound 47, 4-{3-[3-Bromo-4-(difluoro-phosphono-methyl)-benzyl]-1-ethyl-2-oxo-2,3-dihydro-1H-imidazol-4-yl}-benzoic acid methyl ester] has a pIC50 of 6.60 to 7.00.
For `CCCn1cc(-c2ccc(C(=O)OC)cc2)n(Cc2ccc(C(F)(F)P(=O)(O)O)c(Br)c2)c1=O` [Compound 48, 4-{3-[3-Bromo-4-(difluoro-phosphono-methyl)-benzyl]-2-oxo-1-propyl-2,3-dihydro-1H-imidazol-4-yl}-benzoic acid methyl ester], the pIC50 was 6.60 to 7.00.
`O=c1n(Cc2ccccc2)cc(-c2ccc3c(c2)CCCC3)n1Cc1ccc(C(F)(F)P(=O)(O)O)c(Br)c1` [Compound 49, ({4-[3-Benzyl-2-oxo-5-(5,6,7,8-tetrahydro-naphthalen-2-yl)-2,3-dihydro-imidazol-1-ylmethyl]-2-bromo-phenyl}-difluoro-methyl)-phosphonic acid] gave a pIC50 of 5.60 to 6.60.
